SMILES strings stand for the structures.

Assay [1] concerns the target Interferon-induced, double-stranded RNA-activated protein kinase (Homo sapiens) (UniProt P19525). In words: Selectivity interaction (ProQinase) EUB0000171b EIF2AK2.
For assay [2], the target named is T1, Inhibitor of nuclear factor kappa-B kinase subunit beta (Homo sapiens) (UniProt O14920).
T1 sequence (whole entry): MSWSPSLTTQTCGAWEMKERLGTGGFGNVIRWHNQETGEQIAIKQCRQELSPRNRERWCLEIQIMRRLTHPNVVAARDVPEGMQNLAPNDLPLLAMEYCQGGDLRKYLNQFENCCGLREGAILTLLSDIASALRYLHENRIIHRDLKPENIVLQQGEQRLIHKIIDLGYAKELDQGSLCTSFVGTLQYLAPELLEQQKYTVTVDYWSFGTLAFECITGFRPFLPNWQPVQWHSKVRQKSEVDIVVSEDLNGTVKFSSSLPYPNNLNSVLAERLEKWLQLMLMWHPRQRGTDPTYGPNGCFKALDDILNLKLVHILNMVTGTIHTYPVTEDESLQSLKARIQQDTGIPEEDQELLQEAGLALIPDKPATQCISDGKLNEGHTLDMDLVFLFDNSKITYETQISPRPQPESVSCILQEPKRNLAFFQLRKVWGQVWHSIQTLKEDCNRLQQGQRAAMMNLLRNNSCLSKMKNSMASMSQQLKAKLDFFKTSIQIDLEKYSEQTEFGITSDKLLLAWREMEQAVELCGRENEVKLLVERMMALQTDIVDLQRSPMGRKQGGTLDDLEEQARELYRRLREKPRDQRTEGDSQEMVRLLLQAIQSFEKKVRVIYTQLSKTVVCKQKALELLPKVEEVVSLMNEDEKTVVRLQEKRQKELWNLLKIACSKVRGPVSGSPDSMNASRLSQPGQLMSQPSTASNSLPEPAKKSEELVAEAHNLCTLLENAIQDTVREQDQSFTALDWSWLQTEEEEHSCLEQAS
In words: Selectivity interaction (ProQinase) EUB0000171b IKBKB.

In assay [3] the target is T2, Dual specificity mitogen-activated protein kinase kinase 5 (Homo sapiens) (UniProt Q13163).
T2 sequence (whole entry): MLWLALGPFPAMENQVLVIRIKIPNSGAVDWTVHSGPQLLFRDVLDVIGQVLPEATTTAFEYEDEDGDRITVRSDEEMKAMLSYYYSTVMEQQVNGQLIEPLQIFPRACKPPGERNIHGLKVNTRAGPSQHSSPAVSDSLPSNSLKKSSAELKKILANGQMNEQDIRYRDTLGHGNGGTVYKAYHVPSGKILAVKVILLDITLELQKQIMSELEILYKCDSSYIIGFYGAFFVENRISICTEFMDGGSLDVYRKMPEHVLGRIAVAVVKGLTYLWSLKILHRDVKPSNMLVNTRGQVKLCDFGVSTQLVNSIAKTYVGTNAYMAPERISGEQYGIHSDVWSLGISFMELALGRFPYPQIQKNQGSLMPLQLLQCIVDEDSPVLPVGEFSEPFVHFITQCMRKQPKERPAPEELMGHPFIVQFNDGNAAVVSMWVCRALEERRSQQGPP
In words: Selectivity interaction (Ambit KINOMEscan and KiNATiv profiling in Jurkat cells) EUB0000090b MAP2K5. The assay is classed as cell-based. As to conditions: at 1 µM.

Assay [4] concerns the target T3, Dual specificity protein kinase TTK (Homo sapiens) (UniProt P33981).
T3 sequence (whole entry): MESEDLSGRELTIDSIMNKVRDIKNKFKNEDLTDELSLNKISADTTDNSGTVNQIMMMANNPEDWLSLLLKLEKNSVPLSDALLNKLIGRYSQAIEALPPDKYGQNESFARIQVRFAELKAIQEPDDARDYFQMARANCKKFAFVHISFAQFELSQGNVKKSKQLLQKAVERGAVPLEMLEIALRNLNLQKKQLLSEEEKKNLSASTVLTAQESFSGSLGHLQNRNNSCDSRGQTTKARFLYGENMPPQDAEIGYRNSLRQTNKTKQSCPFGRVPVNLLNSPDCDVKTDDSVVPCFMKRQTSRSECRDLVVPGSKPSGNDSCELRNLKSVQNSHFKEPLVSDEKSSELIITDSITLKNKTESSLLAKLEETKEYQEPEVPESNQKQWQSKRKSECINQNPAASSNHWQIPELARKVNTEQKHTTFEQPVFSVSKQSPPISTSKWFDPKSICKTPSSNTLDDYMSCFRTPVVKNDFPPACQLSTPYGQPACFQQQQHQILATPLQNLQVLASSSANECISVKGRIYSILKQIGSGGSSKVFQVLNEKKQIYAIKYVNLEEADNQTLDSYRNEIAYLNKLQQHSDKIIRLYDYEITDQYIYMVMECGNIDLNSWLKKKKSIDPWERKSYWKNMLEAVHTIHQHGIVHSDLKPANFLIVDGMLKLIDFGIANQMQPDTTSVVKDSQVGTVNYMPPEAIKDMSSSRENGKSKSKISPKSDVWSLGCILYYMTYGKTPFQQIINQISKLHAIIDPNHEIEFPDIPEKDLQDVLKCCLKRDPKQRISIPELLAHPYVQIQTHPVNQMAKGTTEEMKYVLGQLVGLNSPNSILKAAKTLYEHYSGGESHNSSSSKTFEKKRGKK
In words: Selectivity interaction (KinomeScan (DiscoverX)) EUB0001079a TTK. As to conditions: at 1 µM.

The target in assay [5] is Prostaglandin E2 receptor EP2 subtype (Homo sapiens) (UniProt P43116). In words: Selectivity interaction (Eurofins CEREP Diversity Profile (receptors and ion channels)) EUB0000279b PTGER2. As to conditions: at 10 µM.
Chain of Prostaglandin E2 receptor EP2 subtype (Homo sapiens) (P43116 whole entry): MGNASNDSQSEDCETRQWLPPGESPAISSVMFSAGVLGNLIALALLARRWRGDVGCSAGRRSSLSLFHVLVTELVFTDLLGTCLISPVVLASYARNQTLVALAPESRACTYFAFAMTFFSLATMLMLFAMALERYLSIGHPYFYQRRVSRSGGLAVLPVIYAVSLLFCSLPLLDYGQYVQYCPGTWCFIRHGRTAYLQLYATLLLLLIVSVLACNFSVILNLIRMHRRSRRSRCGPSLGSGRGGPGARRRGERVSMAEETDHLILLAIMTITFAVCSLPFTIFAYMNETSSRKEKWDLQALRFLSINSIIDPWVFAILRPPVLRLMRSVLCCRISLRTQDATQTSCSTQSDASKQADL
In assay [6] the target is T4, Dual specificity mitogen-activated protein kinase kinase 4 (Homo sapiens) (UniProt P45985).
T4 sequence (whole entry): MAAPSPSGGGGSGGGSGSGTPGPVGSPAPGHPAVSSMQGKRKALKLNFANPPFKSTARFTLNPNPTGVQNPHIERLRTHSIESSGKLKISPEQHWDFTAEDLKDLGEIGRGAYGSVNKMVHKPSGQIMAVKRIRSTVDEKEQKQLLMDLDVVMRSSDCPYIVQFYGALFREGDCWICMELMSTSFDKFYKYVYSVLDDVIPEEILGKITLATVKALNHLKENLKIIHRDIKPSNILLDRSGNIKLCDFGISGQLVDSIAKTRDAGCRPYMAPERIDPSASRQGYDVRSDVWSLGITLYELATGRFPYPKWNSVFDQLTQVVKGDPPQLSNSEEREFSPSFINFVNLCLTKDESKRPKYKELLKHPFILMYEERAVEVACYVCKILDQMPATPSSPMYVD
Nature of the assay: Selectivity interaction (ActivX KiNativ screen (kinase selectivity in THP-1 cell lysates)) EUB0000639a MAP2K4. The assay is classed as subcellular. The following applies: lysate, at 0.04 µM.

Chain of Interferon-induced, double-stranded RNA-activated protein kinase (Homo sapiens) (P19525 whole entry): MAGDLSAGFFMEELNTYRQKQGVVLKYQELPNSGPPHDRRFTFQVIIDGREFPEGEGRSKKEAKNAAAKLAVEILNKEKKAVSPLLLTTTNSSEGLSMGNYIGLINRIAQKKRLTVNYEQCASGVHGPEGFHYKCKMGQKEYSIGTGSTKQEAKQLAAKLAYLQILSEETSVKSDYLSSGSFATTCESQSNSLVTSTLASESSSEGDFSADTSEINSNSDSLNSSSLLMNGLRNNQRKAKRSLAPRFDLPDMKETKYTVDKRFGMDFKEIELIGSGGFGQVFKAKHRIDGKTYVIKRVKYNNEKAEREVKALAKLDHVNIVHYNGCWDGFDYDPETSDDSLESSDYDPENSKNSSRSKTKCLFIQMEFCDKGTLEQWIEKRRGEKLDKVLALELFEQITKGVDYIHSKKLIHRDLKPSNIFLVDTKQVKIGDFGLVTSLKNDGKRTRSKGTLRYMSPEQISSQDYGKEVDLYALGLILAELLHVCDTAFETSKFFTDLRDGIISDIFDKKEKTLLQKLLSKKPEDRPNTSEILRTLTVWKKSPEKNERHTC

Regarding `C=CC(=O)Nc1cccc(C(=O)Nc2ccc(Nc3cc(-c4[nH]c(SC)nc4C)ccn3)cc2)c1`, the % of control in assay [1] (at 1 µM) turned out to be 84%; in assay [1] (at 5 µM) it was 55%; in assay [2] (at 1 µM), 77%; in assay [2] (at 5 µM) it was 63%.

In assay [3], `CN(C)C/C=C/C(=O)Nc1ccc(C(=O)N2CCCC(Nc3ncc(Cl)c(-c4c[nH]c5ccccc45)n3)C2)cc1` (stereo not drawn) gave a % of control of 97%.

Molecule `Nc1cnc(N2CCc3cc(S(=O)(=O)Nc4c(F)cc(Cl)cc4F)cc(N4CCCC4=O)c32)nc1` [TP-020n] yielded a % of control in assay [4] of 90%.

`CC(=O)c1cc(-c2ccccc2OCC2CC2)c2ncccn12` showed a % of control in assay [5] of 95%.

Molecule `CC[C@@H]1[C@H](F)C(=O)N[C@@H]1COc1nccc2cc(C(N)=O)c(OC)cc12` [ZIMLOVISERTIB] came in with a % of inhibition in assay [6] of 8%.

(Values after ChEMBL document CHEMBL5465560, “Selectivity Literature for EUbOPEN Chemogenomic Library” (2024).)
